These results are taken from ChEMBL document CHEMBL3507680, “University of Dundee, Gates Library screen for HepG2 cell viability”.

The nature of this data set: Human HepG2 cell viability assay in 384 well format. It is filed as toxicity, cell-based. Conditions: HepG2 cells, read-out: Inhibition. Further details: dose 125 nL, time 70.5 hour; cytotoxicity at 70.5 h: concentration not given beside the values.
In the case of `O=C(NCC1CCOC1)c1cc(-c2ccccc2Cl)[nH]n1` (stereo not drawn), the cytotoxicity at 70.5 h is -12.9%.

Take `Cc1ccc(C(=O)N(C)CC(=O)N2CCCC2)c(C)c1`: the cytotoxicity at 70.5 h was -16%.

Consider `Cc1cc(N(C)CC2COc3ccccc3O2)nc(C)n1` (stereo not drawn), for which the cytotoxicity at 70.5 h stood at 9.74%.

Consider `O=C1NCCCCC1NC(=O)N1CCc2ccccc21` (stereo not drawn), for which the cytotoxicity at 70.5 h was -14.4%.

As to `COc1ccc2c(c1)CCCN2C(=O)NC1CCCCNC1=O` (stereo not drawn), the cytotoxicity at 70.5 h is 23.6%.

Regarding `O=S(=O)(Cc1nc(C2CC2)no1)c1ccccc1F`, the cytotoxicity at 70.5 h was -11.9%.

For `CNS(=O)(=O)c1ccc(CNC(=O)NCc2cc[nH]n2)cc1`, the cytotoxicity at 70.5 h is -12.9%.

For the compound `O=C1NCCCCC1NC(=O)N1CCCc2cc(F)ccc21` (stereo not drawn), the cytotoxicity at 70.5 h is -4.74%.

`O=C(NCC1CCOC1)c1cc(-c2cccc(Cl)c2)[nH]n1` (stereo not drawn): the cytotoxicity at 70.5 h was -17%.

Turning to `CC(NC(=O)NC1CCN(Cc2ccncc2)CC1)c1ccc(F)cc1` (stereo not drawn), the cytotoxicity at 70.5 h is -13.2%.

As for `Cc1noc(CS(=O)(=O)c2cc(F)ccc2F)n1`, the cytotoxicity at 70.5 h is -8.49%.

As for `CCc1nc(CSc2nnc(N)n2C2CC2)no1`, the cytotoxicity at 70.5 h was -7.26%.

For `COc1ccccc1CNC(=O)C(C)N1CC(n2nc(C)cc2C)C1` (stereo not drawn), the cytotoxicity at 70.5 h was -1.72%.

For `COc1cccc(-c2nc(CNCc3cccnc3)cs2)c1`, the cytotoxicity at 70.5 h was -17.2%.

As to `CN(Cc1nc(CS(C)(=O)=O)no1)c1ccccc1`, the cytotoxicity at 70.5 h is -12.6%.

As for `Cc1ccccc1Cc1nc(CSc2nnc(N)n2C)no1`, the cytotoxicity at 70.5 h is -17.8%.

For `CC(C)c1noc(C(C)N2CCC(c3nc4ccccc4o3)CC2)n1` (stereo not drawn), the cytotoxicity at 70.5 h is -18.9%.

Take `O=C1NCCCN1Cc1nc(-c2ccc(N3CCCCC3)cc2)no1`: the cytotoxicity at 70.5 h was -1.73%.

On to `Cc1ccn(C)c(=O)c1NC(=O)N(C)Cc1cccc(OC(C)C)c1`, for which the cytotoxicity at 70.5 h was 18.1%.

Regarding `CN(c1ncc(S(N)(=O)=O)s1)C1CCc2ccccc21` (stereo not drawn), the cytotoxicity at 70.5 h is -1.27%.

As to `Cc1cc(C(N)=O)ccc1NC(=O)N1CCN(c2cccs2)CC1`, the cytotoxicity at 70.5 h is -12.4%.

With `O=C(CCC1CCCO1)NCCCO` (stereo not drawn), the cytotoxicity at 70.5 h is -18.3%.

For `CCN(CC)C(=O)CN1CCCC1C(=O)N(C)C` (stereo not drawn), the cytotoxicity at 70.5 h is -11.8%.

In the case of `Cc1nn(C)c(C)c1C1COCCN1C(=O)NC1CC1` (stereo not drawn), the cytotoxicity at 70.5 h was found to be 19.2%.

With `CCSc1cc(C(=O)N(C(C)C)C2CC2)ccn1`, the cytotoxicity at 70.5 h is -3.36%.

On to `CCn1cc(CN2CCCN(C(=O)C3(C#N)CCCCC3)CC2)cn1`, for which the cytotoxicity at 70.5 h turned out to be 17.8%.

Turning to `COc1ccc(C)cc1CCNS(=O)(=O)c1ccc2c(c1)CCC(=O)N2`, the cytotoxicity at 70.5 h was -18.5%.

As to `CCN(CC1COc2ccccc2O1)C(=O)C1=NN(C)C(=O)CC1` (stereo not drawn), the cytotoxicity at 70.5 h is -2.86%.

In the case of `CCC(NS(=O)(=O)N1CCOCC1)c1ccccc1OC` (stereo not drawn), the cytotoxicity at 70.5 h is -2.95%.

As for `O=C(Cn1nnn(-c2cccs2)c1=O)N(CC1CCOC1)C1CC1` (stereo not drawn), the cytotoxicity at 70.5 h is -9.03%.

Turning to `COCC(C)N(C)C(=O)CCc1c(C)nc2c(C#N)cnn2c1C` (stereo not drawn), the cytotoxicity at 70.5 h is 3.69%.

Take `Cc1ccc(NCCCNC(=O)NCc2c(C)cc(C)[nH]c2=O)nc1`: the cytotoxicity at 70.5 h is -10.4%.

With `Cc1cc(C)c(CNC(=O)NCCCNc2ccccn2)c(=O)[nH]1`, the cytotoxicity at 70.5 h was determined as 6.35%.

For `COc1ccc(C(C)NS(=O)(=O)c2ccc3c(c2)CCC(=O)N3)cc1F` (stereo not drawn), the cytotoxicity at 70.5 h stood at 12.7%.

`Cc1nc2c(C#N)cnn2c(C)c1CCC(=O)N(C)C1CC1`: the cytotoxicity at 70.5 h came out at 8.54%.

As to `COCCCN(C)S(=O)(=O)c1ccc(Cl)cc1C#N`, the cytotoxicity at 70.5 h is -14.2%.

As to `CSCC(C)N(C)S(=O)(=O)c1ccc(Cl)cc1C#N` (stereo not drawn), the cytotoxicity at 70.5 h was -5.66%.

Regarding `CCC(CNC(=O)Cc1cc(C)on1)Oc1cccc(F)c1` (stereo not drawn), the cytotoxicity at 70.5 h was 0.445%.

In the case of `CC(C)SCc1cccc(NC(=O)NCCc2nnc[nH]2)c1`, the cytotoxicity at 70.5 h amounted to 11.5%.

On to `CCC(O)CN(Cc1ccccc1)S(=O)(=O)c1cnc(C)s1` (stereo not drawn), for which the cytotoxicity at 70.5 h is -9.64%.

With `CN(CC1COc2ccccc2O1)C(=O)C1=NN(C)C(=O)CC1` (stereo not drawn), the cytotoxicity at 70.5 h worked out at 8.57%.

For the compound `COCCOc1ncccc1C(=O)N(C)c1ccc(OC)nc1`, the cytotoxicity at 70.5 h is -8.37%.

`CCCC(C#N)NC(=O)CCCOc1cccc(C(C)=O)c1` (stereo not drawn): the cytotoxicity at 70.5 h stood at 18%.

With `CCCN(CC1COc2ccccc2O1)C(=O)C1=NN(C)C(=O)CC1` (stereo not drawn), the cytotoxicity at 70.5 h was -9.94%.

Take `COCC(=O)N(CCC(=O)OC)CC1CCCO1` (stereo not drawn): the cytotoxicity at 70.5 h is -10.3%.

In the case of `COc1ccc(CN2CCN(S(=O)(=O)c3cc(C(=O)O)cs3)CC2)cc1`, the cytotoxicity at 70.5 h was -18.9%.

Take `O=C(NCCN1CCOCC1)c1ccn(-c2ccccc2F)n1`: the cytotoxicity at 70.5 h is -2.56%.

Take `O=C(CC1CCN(c2ncnc3cccc(F)c23)CC1)N1CCCC1`: the cytotoxicity at 70.5 h is -24.3%.

Regarding `COCC(=O)N1CCN(c2ncnc3cccc(F)c23)CC1`, the cytotoxicity at 70.5 h is 0.217%.

Regarding `O=C(C1CCN(c2ncnc3cccc(F)c23)CC1)N1CCCC1`, the cytotoxicity at 70.5 h was found to be 8.28%.

With `N#CC1(NC(=O)c2nccc3ccccc23)CCC1`, the cytotoxicity at 70.5 h is -8.96%.

For `NCC1(c2cccc(C(F)(F)F)c2)CCCC1`, the cytotoxicity at 70.5 h was 15.4%.

As for `CC(NCc1ccc(-c2ccc(Cl)cc2)o1)c1nnc2n1CCC2` (stereo not drawn), the cytotoxicity at 70.5 h is -4.6%.

For the compound `CCc1nc(CCNC(=O)NC2CCC(=O)N(C)C2)sc1C` (stereo not drawn), the cytotoxicity at 70.5 h was -8.41%.

As for `CCCn1nc2c(cc1=O)CN(Cc1ncc(C(C)(C)C)o1)CC2`, the cytotoxicity at 70.5 h was -4.85%.

On to `CCn1nc2c(cc1=O)CN(Cc1cc(C)on1)CC2`, for which the cytotoxicity at 70.5 h is -3.67%.

As for `COc1cccc(CN(C)Cc2ccccc2C#N)c1OC`, the cytotoxicity at 70.5 h was -1.91%.

In the case of `CC(C(=O)Nc1ccnn1C(C)C)N1CCN(Cc2ccccc2)CC1` (stereo not drawn), the cytotoxicity at 70.5 h was -7.81%.

As to `CC(NCc1cc2cc(F)ccc2o1)c1nnc2n1CCCC2` (stereo not drawn), the cytotoxicity at 70.5 h was -5.97%.

In the case of `NC(=O)c1cccc(NC(=O)CSc2ccc3c(c2)CCC3)c1`, the cytotoxicity at 70.5 h was -1.16%.

For the compound `O=C(c1ccccc1)C1CCN(c2cncc(-n3cccn3)n2)CC1`, the cytotoxicity at 70.5 h came out at 1.36%.

Turning to `CCN1CCC(CNCc2cc(C)ccc2OC)C1` (stereo not drawn), the cytotoxicity at 70.5 h is -8.51%.

For the compound `COC(=O)c1ccc(NC(=O)CN2CCCCC2C2OCCO2)cc1` (stereo not drawn), the cytotoxicity at 70.5 h is 0.785%.

On to `CNC(=O)c1cnc(/C=C/c2cc(OC)c(O)c(OC)c2)s1`, for which the cytotoxicity at 70.5 h is -12.6%.

On to `Cc1ccc(-n2nnc(C(=O)NCCS(N)(=O)=O)c2C2CC2)cc1`, for which the cytotoxicity at 70.5 h is -18.3%.

Take `COc1ccc(NC(=O)c2ccco2)c(N2CCN(C(C)=O)CC2)n1`: the cytotoxicity at 70.5 h was -11.7%.

As for `CCS(=O)(=O)N(C)C1CCN(C(=O)c2ccc(Cl)cc2)CC1`, the cytotoxicity at 70.5 h was -15.5%.

As for `CCS(=O)(=O)N(C)C1CCN(C(=O)c2ccc(C)c(C)c2)CC1`, the cytotoxicity at 70.5 h was -8.23%.

As for `CN(CC(=O)Nc1nncs1)CC1CCCN1c1cccnn1` (stereo not drawn), the cytotoxicity at 70.5 h amounted to 4.97%.

Regarding `Cc1cc(C)n(-c2cncc(N3CCN(C(=O)CN(C)C)CC3)n2)n1`, the cytotoxicity at 70.5 h was -11.6%.

On to `COCc1nc2cc(NCc3nc(C)cs3)ccc2o1`, for which the cytotoxicity at 70.5 h is -2.56%.

For the compound `COCc1nc2cc(NCc3ccc(CO)o3)ccc2o1`, the cytotoxicity at 70.5 h turned out to be 14.6%.

In the case of `NC(=O)C1CCN(C(=O)C2SCCc3sccc32)CC1` (stereo not drawn), the cytotoxicity at 70.5 h is -10.3%.

Turning to `O=C(C1SCCc2sccc21)N1CCN(CC(F)F)CC1` (stereo not drawn), the cytotoxicity at 70.5 h is -5.33%.

`O=C(C1SCCc2sccc21)N1CCN(C2CC2)C(=O)C1` (stereo not drawn): the cytotoxicity at 70.5 h is -5.13%.

As for `O=C(NCC1(CO)CC1)c1nnn(-c2ccc(F)cc2)c1C1CC1`, the cytotoxicity at 70.5 h is -4.26%.

Take `CN1C(=O)c2ccc(NC(=O)CSc3ccc4c(c3)CCC4)cc2C1=O`: the cytotoxicity at 70.5 h is -3.82%.

In the case of `COCc1nc2cc(NCc3csc(C)n3)ccc2o1`, the cytotoxicity at 70.5 h stood at 3.55%.

Consider `Cc1ccc(C(CNCc2cccn2C)N2CCOCC2)s1` (stereo not drawn), for which the cytotoxicity at 70.5 h is -4.6%.

As to `CCN(C(=O)CN1CCCC1Cc1ccccc1)c1ccccc1` (stereo not drawn), the cytotoxicity at 70.5 h stood at 8.48%.

As for `CN(C)C(=O)c1cccc(NC(=O)CN2CCCCC2C2OCCO2)c1` (stereo not drawn), the cytotoxicity at 70.5 h is -5.7%.

For `COc1ccc(CNCC2CCN(CCO)CC2)cc1F`, the cytotoxicity at 70.5 h is -5.24%.

Regarding `CCN(C1CCN(C(=O)c2cccc(Cl)c2)CC1)S(C)(=O)=O`, the cytotoxicity at 70.5 h was -6.65%.

Consider `CCOc1ccc(CNC(C)c2cccc(S(=O)(=O)NC)c2)cc1` (stereo not drawn), for which the cytotoxicity at 70.5 h is -9.92%.

As to `CCn1cc(CNCC(c2ccc(C)s2)N2CCOCC2)cn1` (stereo not drawn), the cytotoxicity at 70.5 h was -7.64%.

Regarding `CCN1CCOC(CNCc2ccc(OC)c(F)c2)C1` (stereo not drawn), the cytotoxicity at 70.5 h is -6.46%.

As to `CNS(=O)(=O)c1cccc(C(C)NCc2ccco2)c1` (stereo not drawn), the cytotoxicity at 70.5 h is -8.45%.

In the case of `CCC1CN(CC(=O)NCc2ccco2)CCO1` (stereo not drawn), the cytotoxicity at 70.5 h was 2.02%.

For the compound `FC(F)(F)C1CCCn2c(CNCc3ccco3)nnc21` (stereo not drawn), the cytotoxicity at 70.5 h was found to be 35.4%.

As for `CN(CC(=O)N1CCCC1c1noc(C2CC2)n1)C1CC1` (stereo not drawn), the cytotoxicity at 70.5 h was -8.76%.

`CCN(C)CCNC(=O)Cc1nc(-c2ccco2)oc1C`: the cytotoxicity at 70.5 h was -13.2%.

On to `CCOc1ncccc1NC(=O)N1CCCC1c1cc(C)no1` (stereo not drawn), for which the cytotoxicity at 70.5 h is -8.02%.

In the case of `Cc1cc(C2CCCN2C(=O)NCc2ccccn2)on1` (stereo not drawn), the cytotoxicity at 70.5 h was -16.2%.

Regarding `Cc1cc(C2CCCN2C(=O)NCc2cccnc2OC(C)C)on1` (stereo not drawn), the cytotoxicity at 70.5 h was -9.53%.

For the compound `CCS(=O)(=O)CC(=O)Nc1c(C)cnn1Cc1cc(F)ccc1F`, the cytotoxicity at 70.5 h turned out to be 25.7%.

Take `O=C(Cn1cnc(NC(=O)c2ccccn2)n1)NCc1ccccc1`: the cytotoxicity at 70.5 h is -12.9%.

As for `CC(C)(C)CC(=O)Nc1ncn(CC(=O)NCc2ccccc2)n1`, the cytotoxicity at 70.5 h is 25.6%.

Consider `CCOCCNC(=O)c1cc(Br)c2c(c1)OCCO2`, for which the cytotoxicity at 70.5 h is -10.7%.

On to `Cc1ccc(N2CCCC(N(C)Cc3nnc(C4CC4)o3)C2)nn1` (stereo not drawn), for which the cytotoxicity at 70.5 h is -5.49%.

Turning to `Cc1ccc(N2CCCC(N(C)Cc3c(C)noc3C)C2)nn1` (stereo not drawn), the cytotoxicity at 70.5 h is 25.3%.

In the case of `C=C(C)Cn1nnc(C2(NC(=O)c3ccccc3)CCCC2)n1`, the cytotoxicity at 70.5 h is -8.81%.

For the compound `COCCCn1nnc(C2(NC(=O)c3ccccc3)CCCC2)n1`, the cytotoxicity at 70.5 h was -12.2%.

As for `COCc1nc2n(n1)CCCC2Nc1nc(C(C)C)ns1` (stereo not drawn), the cytotoxicity at 70.5 h is -6.22%.
